Consider two molecules from patent US20110052532A1, “Pharmaceutical composition comprising a cytokine” (priority 2007, published 2011).

The test system of series [1] is bovine viral diarrhea virus (BVDV) NADL strain. Put plainly: BVDV antiviral drug-drug combination assay (MTS, MacSynergy II). As to conditions: in combination with IFN-α; MDBK cells with BVDV virus. The class given is cell-based. How it is done: (§1) The substances were solubilized in DMSO. Pegylated interferon-alpha (IFN) was supplied by Southern Research Institute and dissolved in sterile dH2O.
(§2) Drug-drug interactions were assayed by testing both the antiviral and cytotoxic activities of a wide range of concentrations of combinations of the compounds and IFN. The bovine viral diarrhea virus (BVDV) NADL strain antiviral evaluation assay and drug-drug combination analysis was performed as described in Antimicro. Agents Chemother. 2003; 47: 2293-8. BVDV is frequently employed as a hepatitis C virus surrogate model in the study of antiviral agents (Antiviral Res. 2003; 60:1-15). Madin-Darby bovine kidney cells were trypsinized, pelleted, counted and resuspended at 1×10^4/well in tissue culture medium in 96-well flat bottom, tissue culture plates in volume of 100 μl per well. […] Five concentrations of substance were evaluated in combination with nine different concentrations IFN; antiviral efficacy and cellular toxicity were monitored by MTS staining at the experimental endpoint.
(§3) At assay termination, the assay plates were stained with the soluble tetrazolium-based dye MTS (CellTiter Reagent Promega) to determine cell viability and quantify compound toxicity. […]
(§4) Theoretical additive values are calculated from the dose response curves for each substance used individually. […]

In series [2] the test system is Madin-Darby bovine kidney cells. Description: BVDV assay, combined cytotoxicity (MTS staining). It is filed as cell-based. As to conditions: in combination with IFN-α; MDBK cells. As for the experimental part: as §1, §2, §3, §4
The subject of series [3] is HCV. As to conditions: cited from earlier work.

For `O=C(c1ccccc1)c1ccc2nc(NC(=O)c3csc(C4CCN(c5ncnc6ccsc56)CC4)n3)[nH]c2c1` [Compound 273, 2-(1-Thieno[3,2-d]pyrimidin-4-yl-piperidin-4-yl)-thiazole-4-carboxylic acid (5-benzoyl-1H-benzoimidazol-2-yl)-amide], the “combined antiviral activity (drug-drug interaction)” value in series [1] is reported as “highly synergistic behaviour”. For the same molecule, in series [2], the “combined cytotoxic activity (drug-drug interaction)” value is “highly antagonistic behaviour”.

B1: IFN-α: type I interferon cytokine; commercial IFN-α is IFN-α1 (protein, UniProt P01562 24-189, looked up)
Interferon alpha-1/13: CDLPETHSLDNRRTLMLLAQMSRISPSSCLMDRHDFGFPQEEFDGNQFQKAPAISVLHELIQQIFNLFTTKDSSAAWDEDLLDKFCTELYQQLNDLEACVMQEERVGETPLMNADSILAVKKYFRRITLYLTEKKYSPCAWEVVRAEIMRSLSLSTNLQERLRRKE
B1: in series [3] (IFN-α therapy in chronic HCV infected patients), the “sustained antiviral response, share of patients” value is 15-20%. The sustained response in series [3] (combination therapy with ribavirin) is on record as 38-43%.
